TGI data for nine molecules are collected here from PubChem BioAssay (NCI).

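48-hour exposure; five concentrations; linearly interpolated endpoints. TGI is the concentration that stops growth completely.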

Assay in all cases: DTP human tumour cell line panel, 48 h
Assay [1] concerns MDA-MB-435.
The subject of assay [2] is RPMI-8226 leukemia.
Assay [3] has as its system SNB-19 CNS.
Assay [4] concerns RXF 393 renal.
In assay [5] the test system is KM12 colon.
Assay [6] has as its system U251 CNS.
Assay [7] concerns SK-OV-3 ovarian.
The subject of assay [8] is MCF7 breast.
The test system of assay [9] is HOP-62 NSCLC.
Assay [10] relates to HL-60(TB) leukemia.
Assay [11] has as its system SK-MEL-5 melanoma.
Assay [12] deals with TK-10 renal.
For assay [13], the system named is ACHN renal.
For assay [14], the system named is K-562 leukemia.
Assay [15] concerns MALME-3M melanoma.
Assay [16] deals with HT29 colon.
The test system of assay [17] is OVCAR-4 ovarian.

By TGI is commonly meant the concentration at which net growth stops. A higher TGI goes with lower sensitivity of the cells. As to `CCOC(=O)CCC(NC(=O)c1ccc(OCc2ccc3nc(OC)c(OC)nc3c2)cc1)C(=O)OCC` (configuration not stated), the TGI in [1] was 91.1 µM; in [2], > 100 µM; in [3], > 100 µM; in assay [4], 90.7 µM; in [5] it was > 100 µM; in [6], > 100 µM. The TGI in assay [7] is > 100 µM; in assay [8], > 100 µM; in assay [9], > 100 µM; in assay [10] it was 73.5 µM; in assay [11] it was > 100 µM; in assay [12], > 100 µM. The TGI is > 100 µM in assay [13], > 100 µM in assay [14], 69.2 µM in assay [15] and > 100 µM in assay [16].
As for `c1ccc(CNCCCNCCCCNCCCNCc2ccccc2)cc1`, the TGI came out at 8.91 µM in assay [1]; 13.7 µM in assay [2]; 27.4 µM in assay [3]; 25.7 µM in [4]; 21 µM in assay [5]; 33.1 µM in [17]. Besides, the TGI is 22.5 µM in assay [6]; 31 µM in assay [7]; 14.4 µM in assay [8]; 17.1 µM in assay [9]; 4 µM in [10]; > 56.2 µM in assay [11]. Further, the TGI in assay [12] came to 18 µM; in [13], 21.4 µM; in assay [15] it was 5.01 µM; in assay [16], 5.86 µM.
On to `COC(=O)C(=O)c1cc2ccccc2n1S(=O)(=O)c1ccccc1`, for which the TGI in assay [1], in assay [3], in [4], in assay [5], in [17] and in assay [6] was > 100 µM each time. For the same molecule, the TGI in assay [7], in [8], in [9], in [10], in assay [11] and in assay [12] was > 100 µM in each case. Also, the TGI in assay [13], in assay [14], in assay [15] and in assay [16] was > 100 µM each time.
Regarding `CC1=C(S(=O)c2ccc(C)cc2)CCC2(CCCCO2)O1` (configuration not stated), the TGI in [1], in assay [2], in assay [3], in assay [4], in assay [5] and in [17] was > 100 µM in each case. In addition, the TGI in [6], in assay [8], in assay [9], in assay [10], in assay [11] and in assay [12] was > 100 µM in each case. For the same molecule, the TGI in assay [13], in [14], in assay [15] and in assay [16] was > 100 µM throughout.
Consider `O=C(Nc1ccc(Cl)cc1Cl)c1cc2nc3ccccc3c(=O)n2c2ccccc12`, for which the TGI in assay [1], in [3], in assay [4], in assay [5], in assay [6] and in assay [7] was > 10 µM each time. The TGI in assay [8], in assay [9], in assay [10], in assay [11], in assay [12] and in [14] was > 10 µM throughout. Also, the TGI in [15] and in assay [16] was > 10 µM throughout.
In the case of `Cc1ccc(C)c(NC(=O)/C(=N\N)C(c2cnc3ccc([N+](=O)[O-])cc3n2)[N+](=O)[O-])c1` (configuration not stated), the TGI in assay [1] was > 100 µM; in assay [2] it was > 100 µM; in [4] it was > 100 µM; in assay [5], > 100 µM; in assay [17] it was 62.9 µM; in assay [6] it was > 100 µM. In addition, the total growth inhibition concentration (TGI) in assay [7], in assay [8], in [9], in assay [10], in assay [11] and in assay [12] was > 100 µM in each case. The TGI in [13] was 40.1 µM; in assay [14] it was > 100 µM; in [15], > 100 µM; in assay [16] it was > 100 µM.
As to `C=CCC1(O)C(=O)OC2C(O)COC21O` (configuration not stated), the TGI in [1], in [3], in assay [4], in assay [5], in assay [17] and in [6] was > 100 µM each time. Further, the TGI in assay [7], in assay [8], in assay [9], in [10], in assay [11] and in assay [12] was > 100 µM in each case. Moreover, the TGI in assay [13], in assay [14], in assay [15] and in assay [16] was > 100 µM throughout.
With `S=C1NCCN1C(=S)NC1CCCCC1`, the total growth inhibition concentration (TGI) was 67.6 µM in assay [1]; > 100 µM in [2]; 28.6 µM in assay [4]; 65.3 µM in [5]; 45.5 µM in assay [17]; > 100 µM in assay [6]. Besides, the TGI was > 100 µM in [7]; > 100 µM in assay [8]; > 100 µM in assay [9]; 96.7 µM in [10]; 50.7 µM in assay [11]; 93.1 µM in [12]. The TGI is > 100 µM in assay [13], > 100 µM in [14], 64.9 µM in assay [15] and 57.2 µM in assay [16].
`CCCC1=NC(C(F)(F)F)(C(F)(F)F)N=C(N2CCOCC2)O1`: the TGI in assay [1], in assay [2], in [3], in assay [4], in assay [5] and in assay [17] was > 100 µM throughout. Further, the concentration for total growth inhibition (TGI) in assay [6], in assay [7], in [8], in [9], in assay [10] and in assay [11] was > 100 µM throughout. In addition, the TGI in [12], in assay [14], in assay [15] and in assay [16] was > 100 µM each time.
